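Protocol summary: plate cells (96-well), add compound at 5 concentrations, incubate 48 h, interpolate endpoints linearly. GI50 = concentration required for 50% inhibition of growth.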 Active and inactive are the calls of the source. No stated cut-off is given here; in the data, active = GI50 up to about 1.1 µM and inactive = higher.
Legend:
Assay in all cases: NCI anticancer screen, dose series, 48 h
[1] = test system: NCI-H23
[2] = test system: SNB-19
[3] = test system: MDA-MB-231
[4] = test system: UACC-62
[5] = test system: OVCAR-4
[6] = test system: 786-0
[7] = test system: LOX IMVI
[8] = test system: UO-31
[9] = test system: TK-10
[10] = test system: DU-145
[11] = test system: OVCAR-3
[12] = test system: COLO 205
[13] = test system: A549
[14] = test system: Malme-3M
[15] = test system: T47D
[16] = test system: BT-549
[17] = test system: KM12
[18] = test system: SK-MEL-28
[19] = test system: SW-620
[20] = test system: K562
[21] = test system: CAKI-1
[22] = test system: SR
[23] = test system: SF-268
[24] = test system: MDA-MB-435
[25] = test system: SF-539
[26] = test system: PC-3
[27] = test system: NCI-H226
[28] = test system: SK-MEL-2
[29] = test system: EKVX
[30] = test system: U-251
[31] = test system: MOLT-4
[32] = test system: HOP-62
[33] = test system: OVCAR-5
[34] = test system: HCT-15
[35] = test system: HT-29
[36] = test system: MCF7
[37] = test system: ACHN
[38] = test system: NCI/ADR-RES
[39] = test system: HOP-92
[40] = test system: UACC-257
[41] = test system: HCC 2998
[42] = test system: SK-MEL-5
[43] = test system: RPMI-8226
[44] = test system: HCT-116
[45] = test system: NCI-H460
[46] = test system: IGROV-1
[47] = test system: M14
[48] = test system: OVCAR-8
[49] = test system: SK-OV-3
[50] = test system: SN12C
[51] = test system: MDA-N
[52] = test system: CCRF-CEM
[53] = test system: SNB-75
[54] = test system: RXF 393
[55] = test system: A498
[56] = test system: SF-295

SMILES: N#Cc1nnc2ccccc2c1N
- GI50 [1]: > 100 µM (inactive)
- GI50 [2]: > 100 µM (inactive)
- GI50 [3]: > 100 µM (inactive)
- GI50 [4]: > 100 µM (inactive)
- GI50 [5]: > 100 µM (inactive)
- GI50 [6]: > 100 µM (inactive)
- GI50 [7]: > 100 µM (inactive)
- GI50 [8]: > 100 µM (inactive)
- GI50 [9]: > 100 µM (inactive)
- GI50 [10]: > 100 µM (inactive)
- GI50 [11]: 2.26 µM (inactive)
- GI50 [12]: > 100 µM (inactive)
- GI50 [13]: > 100 µM (inactive)
- GI50 [14]: > 100 µM (inactive)
- GI50 [15]: > 100 µM (inactive)
- GI50 [16]: > 100 µM (inactive)
- GI50 [17]: > 100 µM (inactive)
- GI50 [18]: > 100 µM (inactive)
- GI50 [19]: > 100 µM (inactive)
- GI50 [20]: > 100 µM (inactive)
- GI50 [21]: > 100 µM (inactive)
- GI50 [22]: > 100 µM (inactive)
- GI50 [23]: > 100 µM (inactive)
- GI50 [24]: > 100 µM (inactive)
- GI50 [25]: > 100 µM (inactive)
- GI50 [26]: > 100 µM (inactive)
- GI50 [27]: > 100 µM (inactive)
- GI50 [28]: > 100 µM (inactive)
- GI50 [29]: > 100 µM (inactive)
- GI50 [30]: > 100 µM (inactive)
- GI50 [31]: > 100 µM (inactive)
- GI50 [32]: > 100 µM (inactive)
- GI50 [33]: > 100 µM (inactive)
- GI50 [34]: > 100 µM
- GI50 [35]: > 100 µM (inactive)
- GI50 [36]: > 100 µM (inactive)
- GI50 [37]: > 100 µM (inactive)
- GI50 [38]: > 100 µM (inactive)
- GI50 [39]: > 100 µM (inactive)
- GI50 [40]: > 100 µM (inactive)
- GI50 [41]: > 100 µM (inactive)
- GI50 [42]: > 100 µM (inactive)
- GI50 [43]: > 100 µM (inactive)
- GI50 [44]: > 100 µM (inactive)
- GI50 [45]: > 100 µM (inactive)
- GI50 [46]: > 100 µM (inactive)
- GI50 [47]: > 100 µM (inactive)
- GI50 [48]: > 100 µM (inactive)

SMILES: CCOC(CI)O[C@@H]1C=C[C@H](OC(C)=O)C1 (stereo partly drawn)
- GI50 [1]: > 100 µM (inactive)
- GI50 [2]: > 100 µM (inactive)
- GI50 [3]: > 100 µM (inactive)
- GI50 [4]: > 100 µM (inactive)
- GI50 [49]: > 100 µM (inactive)
- GI50 [5]: > 100 µM (inactive)
- GI50 [6]: > 100 µM (inactive)
- GI50 [8]: > 100 µM (inactive)
- GI50 [50]: > 100 µM (inactive)
- GI50 [10]: > 100 µM (inactive)
- GI50 [11]: 33.7 µM (inactive)
- GI50 [12]: > 100 µM (inactive)
- GI50 [13]: > 100 µM (inactive)
- GI50 [14]: > 100 µM (inactive)
- GI50 [15]: > 100 µM (inactive)
- GI50 [16]: > 100 µM (inactive)
- GI50 [17]: 30.1 µM (inactive)
- GI50 [18]: > 100 µM (inactive)
- GI50 [51]: > 100 µM (inactive)
- GI50 [19]: > 100 µM (inactive)
- GI50 [20]: > 100 µM (inactive)
- GI50 [21]: 60.7 µM (inactive)
- GI50 [52]: > 100 µM (inactive)
- GI50 [23]: > 100 µM (inactive)
- GI50 [24]: > 100 µM (inactive)
- GI50 [25]: > 100 µM (inactive)
- GI50 [26]: > 100 µM (inactive)
- GI50 [27]: > 100 µM (inactive)
- GI50 [28]: > 100 µM (inactive)
- GI50 [53]: > 100 µM (inactive)
- GI50 [29]: > 100 µM (inactive)
- GI50 [30]: > 100 µM (inactive)
- GI50 [31]: > 100 µM (inactive)
- GI50 [32]: 84.7 µM (inactive)
- GI50 [54]: > 100 µM (inactive)
- GI50 [33]: > 100 µM (inactive)
- GI50 [34]: > 100 µM
- GI50 [35]: > 100 µM (inactive)
- GI50 [36]: > 100 µM (inactive)
- GI50 [37]: > 100 µM (inactive)
- GI50 [38]: > 100 µM (inactive)
- GI50 [40]: > 100 µM (inactive)
- GI50 [55]: > 100 µM (inactive)
- GI50 [41]: > 100 µM (inactive)
- GI50 [56]: > 100 µM (inactive)
- GI50 [43]: > 100 µM (inactive)
- GI50 [44]: > 100 µM (inactive)
- GI50 [45]: > 100 µM (inactive)
- GI50 [47]: > 100 µM (inactive)
- GI50 [48]: > 100 µM (inactive)
